Molecular target: T1, human SMYD3 (Homo sapiens, UniProt Q9H7B4)
T1 construct: Expressed full-length human His-tagged SMYD3 protein was purified from cell paste; His6 (cleaved yes); TEV and SUMO cleavage sites (cleaved yes); made in house; host or cells: E. coli BL21 codonplus RIL
T1 sequence (Q9H7B4 1-428): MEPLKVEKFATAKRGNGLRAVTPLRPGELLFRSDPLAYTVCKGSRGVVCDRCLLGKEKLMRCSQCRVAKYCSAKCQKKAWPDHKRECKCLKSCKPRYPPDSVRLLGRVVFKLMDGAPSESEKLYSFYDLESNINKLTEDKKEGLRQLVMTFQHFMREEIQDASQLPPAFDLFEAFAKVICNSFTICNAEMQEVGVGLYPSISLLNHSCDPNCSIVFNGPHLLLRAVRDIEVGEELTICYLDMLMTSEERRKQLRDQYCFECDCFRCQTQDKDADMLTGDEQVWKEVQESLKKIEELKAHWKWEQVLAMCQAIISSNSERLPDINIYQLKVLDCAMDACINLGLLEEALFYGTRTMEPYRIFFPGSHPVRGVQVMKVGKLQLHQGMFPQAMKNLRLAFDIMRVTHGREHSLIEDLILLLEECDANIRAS
Assay: SMYD3 Biochemical Assay (3H-SAM, MEKK2 protein substrate, SPA)
Settings: Table 1; average of n = 1 to n = 50; read-out: SMYD3 Biochem IC50
From the text: S-adenosylmethionine (SAM), S-adenosylhomocysteine (SAH), Tris, Tween20, dimethylsulfoxide (DMSO), bovine skin gelatin (BSG), and Tris(2-carboxyethyl)phosphine hydrochloride solution (TCEP) were purchased from Sigma-Aldrich at the highest level of purity possible. ^3H-SAM was purchase from American Radiolabeled Chemicals with a specific activity of 80 Ci/mmol. 384-well opaque white OptiPlates and SPA beads (Perkin Elmer, catalog # RPNQ0013) were purchased from PerkinElmer.
N-terminally GST-tagged MEKK2 (MAP3K2) protein corresponding to reference sequence AAF63496.3 was purchased from Life Technologies (catalog # PV4010). This protein was expressed in High Five insect cells and purified to >85% purity. Protein identity was confirmed by MS/MS analysis after proteolytic digestion. The protein sequence used was:
Full-length human SMYD3 isoform 1 (BAB86333) was inserted into a modified pET21b plasmid containing a His6 tag and TEV and SUMO cleavage sites. Because two common variants of SMYD3 exist in the population, site directed mutagenesis was subsequently performed to change amino acid 13 from an asparagine to a lysine, resulting in plasmid pEPZ533. A lysine at position 13 conforms to the more commonly occurring sequence (NP_001161212).
E. coli (BL21 codonplus RIL strain, Stratagene) were transformed with plasmid pEPZ553 by mixing competent cells and plasmid DNA and incubating on ice for 30 minutes followed by heat shock at 42° C. for 1 minute and cooling on ice for 2 minutes. Transformed cells were grown and selected on LB agar with 100 μg/mL ampicillin and 17 μg/mL chloramphenicol at 37° C. overnight. A single clone was used to inoculate 200 mL of LB medium with 100 μg/mL ampicillin and 17 μg/mL chloramphenicol and incubated at 37° C. on an orbital shaker at 180 rpm. Once in log growth, the culture was diluted 1:100 into 2 L of LB medium and grown until OD600 was about 0.3 after which the culture was incubated at 15° C. and 160 rpm. Once OD600 reached about 0.4, IPTG was added to a final concentration of 0.1 mM and the cells were grown overnight at 15° C. and 160 rpm. Cells were harvested by centrifugation at 8000 rpm, for 4 minutes at 4° C. and stored at −80° C. for purification.
Expressed full-length human His-tagged SMYD3 protein was purified from cell paste by Nickel affinity chromatography after equilibration of the resin with Buffer A (25 mM Tris, 200 mM NaCl, 5% glycerol, 5 mM β-mercaptoethanol, pH7.8). The column was washed with Buffer B (Buffer A plus 20 mM imidazole) and His-tagged SMYD3 was eluted with Buffer C (Buffer A plus 300 mM imidazole). The His tag, TEV and SUMO cleavage sites were removed generating native SMYD3 by addition of ULP1 protein at a ratio of 1:200 (ULP1:SMYD3). Imidazole was removed by dialysis overnight in Buffer A. The dialyzed solution was applied to a second Nickel column and the native SMYD3 protein was collected from the column flow-through. The flow-through was dialyzed in Buffer D (25 mM Tris, 5% glycerol, 5 mM β-mercaptoethanol, 50 mM NaCl, pH7.8) and ULP1 was removed using a Q sepharose fast flow column. SMYD3 was eluted in Buffer A and further purified using an S200 size-exclusion column equilibrated with Buffer A. SMYD3 was concentrated to 2 mg/mL with a final purity of 89%.
The assays were all performed in a buffer consisting of 25 mM Tris-Cl pH 8.0, 1 mM TCEP, 0.005% BSG, and 0.005% Tween 20, prepared on the day of use. Compounds in 100% DMSO (1 ul) were spotted into a 384-well white opaque OptiPlate using a Bravo automated liquid handling platform outfitted with a 384-channel head (Agilent Technologies). DMSO (1 ul) was added to Columns 11, 12, 23, 24, rows A-H for the maximum signal control and 1 ul of SAH, a known product and inhibitor of SMYD3, was added to columns 11, 12, 23, 24, rows I-P for the minimum signal control. A cocktail (40 ul) containing the SMYD3 enzyme was added by Multidrop Combi (Thermo-Fisher). […]

Compound	IC50
C[C@@H]1C[C@H](NC(=O)c2cc(C3CC3)on2)C(=O)N1c1cnn(C)c1 (racemic) [compound 19, (±)-cis-5-cyclopropyl-N-(5-methyl-1-(1-methyl-1H-pyrazol-4-yl)-2-oxopyrrolidin-3-yl)isoxazole-3-carboxamide]	> 200 µM
C[C@H]1C[C@H](NC(=O)c2cc(C3CC3)on2)C(=O)N1c1cnn(C)c1 (racemic) [compound 20, (±)-trans 5-cyclopropyl-N-(5-methyl-1-(1-methyl-1H-pyrazol-4-yl)-2-oxopyrrolidin-3-yl)isoxazole-3-carboxamide]	> 200 µM
CC(=O)Nc1ccc(S(=O)(=O)N2CC[C@H](NC(=O)c3cc(C4CC4)on3)C2)cc1 [compound 1, (S)-N-(1-((4-acetamido-phenyl)sulfonyl)pyrrolidin-3-yl)-5-cyclopropyl-isoxazole-3-carboxamide]	> 100 µM
CC(=O)Nc1ccc(S(=O)(=O)N2CC[C@@H](NC(=O)c3cc(C4CC4)on3)C2)cc1 [compound 2, (R)-N-(1-((4-acetamido-phenyl)sulfonyl)pyrrolidin-3-yl)-5-cyclopropyl-isoxazole-3-carboxamide]	> 100 µM
O=C(N[C@H]1CCNC1)c1cc(C2CC2)on1 [compound 3, (S)-5-cyclopropyl-N-(pyrrolidin-3-yl)isoxazole-3-carboxamide]	80.3 µM
O=C(N[C@@H]1CCNC1)c1cc(C2CC2)on1 [compound 4, (R)-5-cyclopropyl-N-(pyrrolidin-3-yl)isoxazole-3-carboxamide]	83.7 µM
Cc1cc(N2CCC(NC(=O)c3cc(C4CC4)on3)C2=O)n(C)n1 (stereo not shown) [compound 6, 5-cyclopropyl-N-(1-(1,3-dimethyl-1H-pyrazol-5-yl)-2-oxopyrrolidin-3-yl)isoxazole-3-carboxamide]	> 200 µM
CN1CCC(NC(=O)c2cc(C3CC3)on2)C1c1ccc(F)c(F)c1 (stereo not shown) [compound 9, 5-cyclopropyl-N-(2-(3,4-difluorophenyl)-1-methylpyrrolidin-3-yl)isoxazole-3-carboxamide]	67.2 µM
CC1CC(NC(=O)c2cc(C3CC3)on2)C(=O)N1c1ccccc1 (stereo not shown) [compound 11, 5-cyclopropyl-N-(5-methyl-2-oxo-1-phenylpyrrolidin-3-yl)isoxazole-3-carboxamide]	78.1 µM
CC(C)N1CCC(NC(=O)c2cc(C3CC3)on2)C1c1ccc(F)c(F)c1 (stereo not shown) [compound 12, 5-cyclopropyl-N-(2-(3,4-difluorophenyl)-1-isopropylpyrrolidin-3-yl)isoxazole-3-carboxamide]	58.6 µM
Cn1ccc(N2CCC(NC(=O)c3cc(C4CC4)on3)C2=O)n1 (stereo not shown) [compound 15, 5-cyclopropyl-N-(1-(1-methyl-1H-pyrazol-3-yl)-2-oxopyrrolidin-3-yl)isoxazole-3-carboxamide]	158 µM
COc1cccc(C2C(NC(=O)c3cc(C4CC4)on3)CCN2C2CC2)c1 (stereo not shown) [compound 16, 5-cyclopropyl-N-(1-cyclopropyl-2-(3-methoxy-phenyl)pyrrolidin-3-yl)isoxazole-3-carboxamide]	77.4 µM
O=C(NC1CC(=O)N(c2ccccc2)C1)c1cc(C2CC2)on1 (stereo not shown) [compound 25, 5-cyclopropyl-N-(5-oxo-1-phenylpyrrolidin-3-yl)isoxazole-3-carboxamide]	98.8 µM
O=C(NC1CC(=O)N(Cc2ccccc2)C1)c1cc(C2CC2)on1 (stereo not shown) [compound 26, N-(1-benzyl-5-oxopyrrolidin-3-yl)-5-cyclopropylisoxazole-3-carboxamide]	88.4 µM
O=C(NC1CCN(Cc2ccccc2)C1=O)c1cc(C2CC2)on1 (stereo not shown) [compound 27, N-(1-benzyl-2-oxopyrrolidin-3-yl)-5-cyclopropylisoxazole-3-carboxamide]	> 200 µM
O=C(NC1CCN(c2ccccc2)C1=O)c1cc(C2CC2)on1 (stereo not shown) [compound 28, 5-cyclopropyl-N-(2-oxo-1-phenyl-pyrrolidin-3-yl)isoxazole-3-carboxamide]	94.2 µM

Further lines, results first:

IC50	Compound
56.2 µM	CN1C[C@H](NC(=O)c2cc(C3CC3)on2)[C@H](c2ccccc2)C1 (racemic) [compound 17, (±)-cis-5-cyclopropyl-N-((1-methyl-4-phenylpyrrolidin-3-yl)isoxazole-3-carboxamide]
50.4 µM	CN1C[C@H](NC(=O)c2cc(C3CC3)on2)[C@@H](c2ccccc2)C1 (racemic) [compound 18, (±)-trans-5-cyclopropyl-N-(1-methyl-4-phenylpyrrolidin-3-yl)isoxazole-3-carboxamide]
55.1 µM	CN1CCC(NC(=O)c2cc(C3CC3)on2)C1c1ccccc1 (stereo not shown) [compound 5, 5-cyclopropyl-N-(1-methyl-2-phenyl-pyrrolidin-3-yl)isoxazole-3-carboxamide]
51.5 µM	CN1CCC(NC(=O)c2cc(C3CC3)on2)C1c1ccc(Cl)c(F)c1 (stereo not shown) [compound 7, N-(2-(4-chloro-3-fluorophenyl)-1-methylpyrrolidin-3-yl)-5-cyclo-propylisoxazole-3-carboxamide]
12.4 µM	O=C(NC1CCN(C2CC2)C1c1ccc(F)c(F)c1)c1cc(C2CC2)on1 (stereo not shown) [compound 8, 5-cyclopropyl-N-(1-cyclopropyl-2-(3,4-difluoro-phenyl)pyrrolidin-3-yl)isoxazole-3-carboxamide]
53.5 µM	CC1CC(NC(=O)c2cc(C3CC3)on2)CN1c1ccccc1 (stereo not shown) [compound 10, 5-cyclopropyl-N-(5-methyl-1-phenylpyrrolidin-3-yl)isoxazole-3-carboxamide]
51.9 µM	CN1CCC(NC(=O)c2cc(C3CC3)on2)C1c1ccc(F)cc1 (stereo not shown) [compound 13, 5-cyclopropyl-N-(2-(4-fluorophenyl)-1-methylpyrrolidin-3-yl)isoxazole-3-carboxamide]
58.5 µM	CN1C(=O)CC(NC(=O)c2cc(C3CC3)on2)C1c1ccc(F)cc1 (stereo not shown) [compound 14, 5-cyclopropyl-N-(2-(4-fluorophenyl)-1-methyl-5-oxopyrrolidin-3-yl)isoxazole-3-carboxamide]
54.1 µM	CC1CC(NC(=O)c2cc(C3CC3)on2)CN1Cc1ccccc1 (stereo not shown) [compound 21, N-(1-benzyl-5-methylpyrrolidin-3-yl)-5-cyclopropyl-isoxazole-3-carboxamide]
47.1 µM	CC1CC(NC(=O)c2cc(C3CC3)on2)CN1C1CC1 (stereo not shown) [compound 22, 5-cyclopropyl-N-(1-cyclopropyl-5-methylpyrrolidin-3-yl)isoxazole-3-carboxamide]
48.5 µM	CC1CN(C2CC2)CC1NC(=O)c1cc(C2CC2)on1 (stereo not shown) [compound 23, 5-cyclopropyl-N-(1-cyclopropyl-4-methylpyrrolidin-3-yl)isoxazole-3-carboxamide]
38.4 µM	CC(c1ccccc1)N1CCC(NC(=O)c2cc(C3CC3)on2)C1 (stereo not shown) [compound 24, 5-cyclopropyl-N-(1-(1-phenylethyl)pyrrolidin-3-yl)isoxazole-3-carboxamide]

Reference: patent US20170253601A1, “Substituted Pyrrolidine Compounds” (EPIZYME, INC., priority 2014, published 2017)
